These results are taken from US20220289698A1, “INHIBITORS OF HUMAN ATGL” (Karl-Franzens-Universität Graz, priority 2019, published 2022).

By IC50 is commonly meant the concentration at which inhibition is half-maximal. By inhibition is commonly meant the change of the read-out against control, counted positive when it falls. What is called melting point is the temperature of the solid-liquid transition.

The first data set concerns the target T1, human ATGL (Homo sapiens, UniProt Q96AD5).
T1 construct: made in house; host or cells: Expi cells (lysate, not purified)
T1 sequence (Q96AD5 1-504): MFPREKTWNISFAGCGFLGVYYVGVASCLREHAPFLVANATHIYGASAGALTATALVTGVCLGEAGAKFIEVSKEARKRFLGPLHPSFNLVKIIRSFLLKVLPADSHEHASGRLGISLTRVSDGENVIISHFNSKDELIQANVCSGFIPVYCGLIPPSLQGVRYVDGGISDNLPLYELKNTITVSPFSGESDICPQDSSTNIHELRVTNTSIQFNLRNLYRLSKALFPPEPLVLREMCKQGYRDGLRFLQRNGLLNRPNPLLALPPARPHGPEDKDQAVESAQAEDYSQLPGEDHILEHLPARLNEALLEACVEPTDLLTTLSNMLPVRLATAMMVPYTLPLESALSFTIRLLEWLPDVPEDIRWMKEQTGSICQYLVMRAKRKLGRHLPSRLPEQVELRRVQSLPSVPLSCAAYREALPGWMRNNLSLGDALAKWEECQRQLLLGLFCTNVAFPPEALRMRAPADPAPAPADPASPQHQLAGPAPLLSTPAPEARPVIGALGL
The data set is described as follows: TG hydrolase activity, Expi cell lysates expressing human ATGL + CGI-58, radiolabelled triolein. The following applies: Example 237; read-out: Inhibition of human ATGL − IC50. The format is biochemical. In outline:
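Lysates of Expi cells expressing ATGL, supplemented with purified CGI-58 and inhibitor in DMSO, incubated 1 h at 37 °C with emulsified radiolabelled triolein (330 μM) in potassium phosphate pH 7.0 with 5% FA-free BSA. Released FA counted by liquid scintillation after phase extraction; IC50 versus DMSO control, duplicates.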
As for `COCc1ccc(-c2cc(OC)cc(C(=O)OC)n2)cc1` [Example 40], the IC50 was determined as 10 µM. `CCOC(=O)c1cccc(-c2ccc(-c3ccccn3)cc2)n1` [Example 48]: the IC50 came to 25 µM. `CCOC(=O)c1cccc(-c2ccc(-c3cccnc3)cc2)n1` [Example 49]: the IC50 is 20 µM. On the same count and under the same terms, for `CCOc1ccc(-c2nc(C(=O)OC(C)C)c(OC(C)C)s2)cc1` [Example 177] the value was 25 µM.

The data set is the same for the next values; noted with them: Example 238; read-out: Inhibition of human ATGL IC50.
Turning to `C#CCC(C)OC(=O)c1csc(-c2ccc(OCC)cc2)n1` (stereo not shown) [Example 208, Pont-4-yn-2-yl 2-(4-ethoxyphenyl)thiazole-4-carboxylate], the IC50 worked out at 10 µM. On the same count and under the same terms, next, `CCOc1ccc(-c2nc(C(=O)OCc3cncs3)cs2)cc1` [Example 217, Thiazol-5-ylmethyl-2-(4-ethoxyphenyl)thiazole-4-carboxylate]: 20 µM.

The same data set, now with this note: values of text and figure legend; read-out: IC50 on human ATGL (hATGL).
As to `CCOc1ccc(-c2cc(C)cc(C(=O)OC(C)C)n2)cc1` [Example 20], the IC50 turned out to be 4 µM.

In a further data set the target is T2, murine ATGL (Mus musculus, UniProt Q8BJ56).
T2 construct: made in house; host or cells: Expi cells (lysate)
T2 sequence (Q8BJ56 1-486): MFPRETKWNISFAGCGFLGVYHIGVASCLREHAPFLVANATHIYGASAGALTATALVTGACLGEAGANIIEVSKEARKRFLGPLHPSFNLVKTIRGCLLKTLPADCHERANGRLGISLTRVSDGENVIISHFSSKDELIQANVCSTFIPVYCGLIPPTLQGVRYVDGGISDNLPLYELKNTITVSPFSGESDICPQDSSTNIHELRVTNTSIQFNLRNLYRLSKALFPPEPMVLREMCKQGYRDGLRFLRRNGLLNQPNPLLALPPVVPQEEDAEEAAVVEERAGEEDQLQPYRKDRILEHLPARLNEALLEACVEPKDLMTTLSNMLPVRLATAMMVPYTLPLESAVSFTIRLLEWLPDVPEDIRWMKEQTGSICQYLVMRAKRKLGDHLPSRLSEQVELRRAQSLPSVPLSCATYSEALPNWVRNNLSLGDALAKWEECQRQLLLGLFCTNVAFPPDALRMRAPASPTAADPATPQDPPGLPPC
The data set is described as follows: TG hydrolase activity, Expi lysates expressing mouse ATGL + CGI-58, radiolabelled triolein. The format is biochemical. The following applies: 50 μM compound; Example 237; read-out: Inhibition of murine ATGL at 50 μM − mean [%]. How it is done: Triglyceride (TG) hydrolase activity was measured as previously described (Schweiger M et al., Methods in Enzymology, 2014, 538:171-93). In brief, TG hydrolase activity was determined by adding recombinant purified CGI-58 to Expi cell lysates expressing human ATGL. For determination of cross-species reactivity Expi lysates expressing ATGL from different model organisms (e.g. mouse, rat, rhesus monkey, goat, etc.) were used. Samples were incubated with DMSO (carrier) or increasing concentrations of ATGL inhibitors dissolved in DMSO. TG substrate was prepared by emulsifying 330 μM radiolabelled triolein (40,000 c.p.m./nmol) and 45 μM phosphatidylcholine/phosphatidylinositol (3:1) in 100 mM potassium phosphate buffer (pH 7.0) by sonication and adjusting to 5% essentially FA-free BSA. TG substrate was added to the reaction mixture and incubated for 1 h at 37° C. in the water bath. The reaction was terminated by adding methanol/chloroform/heptane (10:9:7) and 0.1 M potassium carbonate with 0.1 M boric acid (pH 10.5). After centrifugation at 800 g for 15 min the radioactivity in the upper phase was determined by liquid scintillation counting and the rate of FA hydrolysis was calculated. IC50 values were determined as inhibitor concentration capable of inhibiting TG hydrolase activity by 50% as compared to DMSO control. Samples were measured as duplicates. The determination of IC50 values for human ATGL is illustrated in FIG. 1.
Lysates from Expi cells overexpressing ATGL from mouse (Mus musculus) were incubated with recombinant purified ATGL co-activator CGI-58 and ATGL inhibitors at 50 μM. Subsequently, substrate containing radiolabeled triolein was added and liberated FA were extracted and quantified by liquid scintillation. Inhibitors were dissolved in DMSO which was used as control. Samples were measured in triplicates.
For `CCOc1ccc(-c2nc(C(=O)OC(C)C)c(OC(C)C)s2)cc1` [Example 177], the inhibition at 50 µM came out at 0%.

Still in this data set, the particulars now being: 50 μM; Example 238; read-out: % Inhibition of murine ATGL at 50 μM.
Turning to `C#CCC(C)OC(=O)c1csc(-c2ccc(OCC)cc2)n1` (stereo not shown) [Example 208, Pont-4-yn-2-yl 2-(4-ethoxyphenyl)thiazole-4-carboxylate], the inhibition at 50 µM came to 59%.

For the compound `CCOc1ccc(-c2nc(C(=O)OCc3cncs3)cs2)cc1` [Example 217, Thiazol-5-ylmethyl-2-(4-ethoxyphenyl)thiazole-4-carboxylate], the inhibition at 50 µM was 77%.

System in another data set: not given
Test: not given
Details: not given
On to `CCOc1ccc(-c2cccc(C(=O)OCCCOC)n2)cc1` [Example 3], for which the melting point fell in the range of 36 to 38 °C. On the same count and under the same terms, for `CCOc1ccc(-c2cccc(C(=O)OCC(C)(C)C)n2)cc1` [Example 4] the value was 89 to 92 °C; for `CCOc1ccc(-c2cccc(C(=O)OCCCO)n2)cc1` [Example 5], 61 to 63 °C. The same measure, in the same setting: for `CCCCCCOC(=O)c1cccc(-c2ccc(OCC)cc2)n1` [Example 7] the value was 48 to 51 °C. Consider `CCOC(=O)c1cccc(-c2ccc(OCc3ccccc3)cc2)n1` [Example 9], for which the melting point fell in the range of 143 to 145 °C. Still for that read-out and setting: next, `CC(C)OC(=O)c1cccc(-c2ccc(O)cc2)n1` [Example 10]: 154 to 157 °C; `CC(C)OC(=O)c1cccc(-c2ccc(N(C)C)cc2)n1` [Example 17]: 134 to 140 °C; `CCOc1ccc(-c2cc(C)cc(C(=O)OC(C)C)n2)cc1` [Example 20]: 85 to 88 °C. The same measure, in the same setting: for `CCOc1ccc(-c2cccc(C(=O)OCc3ccccc3)n2)cc1` [Example 22] the value was 80 to 81 °C; for `CCOC(=O)c1cccc(-c2ccccc2)n1` [Example 39], 42 to 46 °C; for `COCc1ccc(-c2cc(OC)cc(C(=O)OC)n2)cc1` [Example 40], 65 to 68 °C.

`CCOC(=O)c1cccc(-c2ccc(-c3ccccn3)cc2)n1` [Example 48]: the melting point lay in the range of 130 to 132 °C. `CCOC(=O)c1cccc(-c2ccc(-c3cccnc3)cc2)n1` [Example 49] had a melting point of 84 to 104 °C. On the same count and under the same terms, for `CCOC(=O)c1cccc(-c2ccc(-c3ccncc3)cc2)n1` [Example 50] the value was 127 to 131 °C; for `CC(C)OC(=O)c1cccc(-c2ccc(C(C)(C)C)cc2)n1` [Example 60], 104 to 106 °C; for `C#C[C@H](C)OC(=O)c1cccc(-c2ccc(CCC)cc2)n1` [Example 72], 112 to 113 °C. For the compound `CCOc1ccc(-c2cccc(C(=O)OCCc3ccccc3)n2)cc1` [Example 74], the melting point is 80 to 82 °C. Still for that read-out and setting: for `COC(=O)c1cccc(-c2ccc(C(F)(F)F)cc2)n1` [Example 78] the value was 95 to 96 °C. On the same count and under the same terms, for `CC(C)OC(=O)c1cccc(C#Cc2ccccc2)n1` [Example 79] the value was 85 to 86 °C; for `CCOC(=O)c1cccc(-c2ccc(C(F)(F)F)cc2)n1` [Example 81], 110 to 112 °C. Still for that read-out and setting: for `C=CCOC(=O)c1cccc(-c2ccc(C(F)(F)F)cc2)n1` [Example 82] the value was 79 to 80 °C; for `CCOC(=O)c1csc(-c2ccc(C(F)(F)F)cc2)n1` [Example 183, Ethyl 2-(4-(trifluoromethyl)phenyl)thiazole-4-carboxylate], 100 °C. The compound `CCOC(=O)c1csc(-c2ccc(C)cc2)n1` [Example 184, Ethyl 2-(p-tolyl)thiazole-4-carboxylate] displayed a melting point of 39 to 41 °C. The same measure, in the same setting: next, `CCOC(=O)c1csc(-c2ccc(C(C)(C)C)cc2)n1` [Example 186, Ethyl 2-(4-(tert-butyl)phenyl)thiazole-4-carboxylate]: 50 to 52 °C; `CCOC(=O)c1csc(-c2ccc(O)cc2)n1` [Example 188, Ethyl 2-(4-hydroxyphenyl)thiazole-4-carboxylate]: 171 °C; `CCOc1ccc(-c2cccc(C(=O)OCCc3ccco3)n2)cc1` [Example 191, 2-(Furan-2-yl)ethyl 6-(4-ethoxyphenyl)picolinate]: 82 to 84 °C. Same read-out and setting: for `CCOc1ccc(-c2cccc(C(=O)OCc3ccccn3)n2)cc1` [Example 192, Pyridin-2-ylmethyl 6-(4-ethoxyphenyl)picolinate] the value was 124 to 127 °C; for `CCOc1ccc(-c2cccc(C(=O)OCc3cccnc3)n2)cc1` [Example 193, Pyridin-3-ylmethyl 6-(4-ethoxyphenyl)picolinate], 107 to 110 °C; for `CCOc1ccc(-c2cccc(C(=O)OCc3ccncc3)n2)cc1` [Example 194, Pyridin-4-ylmethyl 6-(4-ethoxyphenyl)picolinate], 101 to 106 °C. Still for that read-out and setting: next, `CCOc1ccc(-c2cccc(C(=O)OCCc3cccs3)n2)cc1` [Example 195, 2-(Thiophen-2-yl)ethyl 6-(4-ethoxyphenyl)picolinate]: 73 to 78 °C; `CCOc1ccc(-c2cccc(C(=O)OCCc3ccsc3)n2)cc1` [Example 196, 2-(Thiophen-3-yl)ethyl 6-(4-ethoxyphenyl)picolinate]: 73 to 76 °C; `CCOc1ccc(-c2cccc(C(=O)OCc3cncs3)n2)cc1` [Example 199, Thiazol-5-ylmethyl 6-(4-ethoxyphenyl)picolinate]: 75 to 80 °C.

Compound `CCOC(=O)c1ccc(-c2ccc(OCC)cc2)nc1` [NG-408] gave a melting point of 106 to 108 °C.

In turn, `CCOc1ccc(-c2cccc(C#N)n2)cc1` [NG-437] gave a melting point of 109 to 111 °C. The same measure, in the same setting: next, `CCOc1ccc(-c2ccc(O)c(C(=O)OC)n2)cc1` [NG-461]: 114 to 116 °C; `CCOc1ccc(-c2ccc(OC)c(C(=O)OC)n2)cc1` [NG-462]: 114 to 116 °C. The same measure, in the same setting: for `CCOc1ccc(-c2ccc(OC(C)=O)c(C(=O)OC)n2)cc1` [NG-477] the value was 120 to 123 °C; for `CC(C)OC(=O)c1cccc(-c2ccc(Cl)c(Cl)c2)n1` [NG-481], 74 to 76 °C.

Consider `CC(C)OC(=O)c1cccc(-c2ccc(C(F)(F)F)cc2F)n1` [NG-587], for which the melting point lay in the range of 96 to 97 °C. The same measure, in the same setting: for `CCOc1ccc(-c2cccc(C(F)(F)F)n2)cc1` [NG-622] the value was 100 to 101 °C; for `CCOc1ccc(-c2cccc(C(C)=O)n2)cc1` [NG-631], 80 to 86 °C; for `CCOC(=O)Cc1cccc(-c2ccc(OCC)cc2)n1` [NG-640], 90 to 91 °C.
